In the supplement of paper PMC12137928:
Counter-ions that a name gives are not always drawn.

Test system: HCT116
Settings: 72 h
Summary of the method: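 HCT116 cells were plated at 250 per well in 1536-well plates and allowed 5 h to attach. CellTiter-Glo luminescence was normalized to vehicle as 0% and positive control as -100%, followed by pattern correction. Four-parameter Hill fits provided IC50 and maximal efficacy.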

| SMILES | IC50 cell viability (ICRF193 0 nM) [µM] | IC50 cell viability (ICRF193 200 nM) [µM] |
| --- | --- | --- |
| CN(C)Cc1ccccc1 [N,N-Dimethylbenzylamine] | > 45.8 | > 45.8 |
| C=CCCCCCCCCC(=O)O[C@H]1CC[C@H]2[C@@H]3CCC4=CC(=O)C=C[C@]4(C)[C@H]3CC[C@]12C [Boldenone Undecylenate] | > 45.8 | > 45.8 |
| Cc1ccc(C(=O)Oc2ccc(C(O)CNC(C)(C)C)cc2OC(=O)c2ccc(C)cc2)cc1 (stereo not drawn) [Bitolterol] | > 45.8 | > 45.8 |
| NC(=O)N1c2ccccc2C=Cc2ccccc21 [Carbamazepine] | > 45.8 | > 45.8 |
| NC(CS)C(=O)O (racemic) [DL-Cysteine] | > 45.8 | > 45.8 |
| O=C(O)CCCCC1CCSS1 (stereo not drawn) [alpha-Lipoic acid] | > 45.8 | > 45.8 |
| CC(C)[C@H]1CC[C@H](C(=O)N[C@H](Cc2ccccc2)C(=O)O)CC1 [Nateglinide] | > 45.8 | > 45.8 |
| CC(C)=CCN1CC[C@]2(C)c3cc(O)ccc3C[C@H]1[C@H]2C [(+)-Pentazocine succinate] | > 45.8 | > 45.8 |
| O=C(O)c1cc(O)c2c3nc4ccccc4oc-3cc(=O)c2n1 [Pirenoxine Sodium] | > 45.8 | > 45.8 |
| C=C[C@]1(C)C[C@@H](OC(=O)CSCCN(CC)CC)[C@]2(C)[C@H](C)CC[C@]3(CCC(=O)[C@H]32)[C@@H](C)[C@@H]1O [Tiamulin] | > 45.8 | > 45.8 |
| CN1[C@@H]2CC[C@H]1C[C@@H](OC(=O)c1c[nH]c3ccccc13)C2 [Tropisetron] | > 45.8 | > 45.8 |
| CCCc1cc(=O)[nH]c(=S)[nH]1 [Propylthiouracil] | > 45.8 | > 45.8 |
| O=C(NCC1CCCCN1)c1cc(OCC(F)(F)F)ccc1OCC(F)(F)F (stereo not drawn) [Flecainide] | > 45.8 | > 45.8 |
| CC1(C)C2CCC1(C)C(O)C2 (stereo not drawn) [BORNEOL] | > 45.8 | > 45.8 |
| CCN(CC)CCS(=O)(=O)[C@@H]1CCN2C(=O)c3coc(n3)CC(=O)C[C@H](O)/C=C(C)/C=C/CNC(=O)/C=C/[C@@H](C)[C@@H](C(C)C)OC(=O)[C@@H]12 [Dalfopristin] | > 45.8 | > 45.8 |
| C[C@]12CC[C@H]3[C@@H](CCC4=CC(=O)CC[C@@H]43)[C@@H]1CC[C@@H]2OC(=O)CCc1ccccc1 [Nandrolone phenpropionate] | > 45.8 | > 45.8 |
| CC[N+](CC)(CC)CCC(O)(c1ccccc1)C1CCCCC1 (stereo not drawn) [Tridihexethyl chloride] | > 45.8 | > 45.8 |
| Cc1c(F)c(N2CCNC(C)C2)cc2c1c(=O)c(C(=O)O)cn2C1CC1 (stereo not drawn) [Grepafloxacin hydrochloride] | > 45.8 | > 45.8 |
| CC(Cc1ccccc1)NCCCCl (stereo not drawn) [Mefenorex] | > 45.8 | > 45.8 |
| O=P(O)(O)O[C@H]1[C@H](OP(=O)(O)O)[C@@H](OP(=O)(O)O)[C@H](OP(=O)(O)O)[C@@H](OP(=O)(O)O)[C@H]1OP(=O)(O)O [Phytic acid] | > 45.8 | > 45.8 |

| SMILES | IC50 cell viability (ICRF193 0 nM) [µM] | IC50 cell viability (ICRF193 200 nM) [µM] |
| --- | --- | --- |
| CCCCCCC(=O)O[C@H]1CC[C@H]2[C@@H]3CC[C@H]4CC(=O)C=C(C)[C@]4(C)[C@H]3CC[C@]12C [Methenolone enanthate] | > 45.8 | > 45.8 |
| C[C@]12CC[C@H]3[C@@H](CCC4=C(O)C(=O)CC[C@@H]43)[C@@H]1CC[C@@H]2OC(=O)CCC1CCCC1 [Oxabolone cipioncate] | > 45.8 | > 45.8 |
| C[C@@H]1C[C@H]2[C@@H]3CCC4=CC(=O)C=C[C@]4(C)[C@@]3(F)[C@@H](O)C[C@]2(C)[C@@]1(O)C(=O)COP(=O)(O)O [Dexamethasone 21-phosphate disodium salt] | > 45.8 | > 45.8 |
| CC(=O)OCC(=O)NCCCOc1cccc(CN2CCCCC2)c1 [Roxatidine acetate hydrochloride] | > 45.8 | > 45.8 |
| C[C@]12C=CC(=O)C=C1CC[C@H]1[C@@H]3C[C@@H](O)[C@](O)(C(=O)CO)[C@@]3(C)C[C@H](O)[C@@]12F [Triamcinolone] | > 45.8 | > 45.8 |
| COC(=O)CCC(=O)CN [Methyl delta-aminolevulinate hydrochloride] | > 45.8 | > 45.8 |
| O=C(O)CCC(=O)Nc1ccc(S(=O)(=O)Nc2nccs2)cc1 [Succinylsulfathiazole] | > 45.8 | > 45.8 |
| Cc1ccc(S(=O)(=O)NC(=O)NN2CCCCCC2)cc1 [Tolazamide] | > 45.8 | > 45.8 |
| C#CCN(C)Cc1ccccc1 [Pargyline hydrochloride] | > 45.8 | > 45.8 |
| CCCCCCCCCCC(CO)CCCCCCCC (stereo not drawn) [2-Octyl-1-dodecanol] | > 45.8 | > 45.8 |
| CC1=C(C(=O)O)N2C(=O)[C@@H](NC(=O)[C@H](N)C3=CCC=CC3)[C@H]2SC1 [CEPHRADINE] | > 45.8 | > 45.8 |
| C#C[C@]1(O)CC[C@H]2[C@@H]3[C@H](C)CC4=C(CCC(=O)C4)[C@H]3CC[C@@]21C [Tibolone] | > 45.8 | > 45.8 |
| CC(C)N(CCC(C(N)=O)(c1ccccc1)c1ccccn1)C(C)C (stereo not drawn) [Disopyramide] | > 45.8 | > 45.8 |
| COc1cc2nc(N(C)CCCNC(=O)C3CCCO3)nc(N)c2cc1OC (stereo not drawn) [Alfuzosin hydrochloride] | > 45.8 | > 45.8 |
| CCOc1ccc(Cc2cc([C@@H]3O[C@H](CO)[C@@H](O)[C@H](O)[C@H]3O)ccc2Cl)cc1 [Dapagliflozin] | > 45.8 | > 45.8 |
| O=C(C1CCCCC1)N1CC(=O)N2CCc3ccccc3C2C1 (stereo not drawn) [Praziquantel] | > 45.8 | > 45.8 |
| CN(C)C(=O)COC(=O)Cc1ccc(OC(=O)c2ccc(NC(=N)N)cc2)cc1 [Camostat] | > 45.8 | > 45.8 |
| CC(=O)OCC1=C(C(=O)O)N2C(=O)[C@@H](NC(=O)Cc3cccs3)[C@H]2SC1 [Cephalothin] | > 45.8 | > 45.8 |
| Cc1oc(=O)oc1COC(=O)[C@@H]1N2C(=O)[C@@H](NC(=O)[C@H](N)c3ccccc3)[C@H]2SC1(C)C [Lenampicillin hydrochloride] | > 45.8 | > 45.8 |
| NCCCC[C@H](N[C@@H](CCc1ccccc1)C(=O)O)C(=O)N1CCC[C@H]1C(=O)O [Lisinopril dihydrate] | > 45.8 | > 45.8 |

| SMILES | IC50 cell viability (ICRF193 0 nM) [µM] | IC50 cell viability (ICRF193 200 nM) [µM] |
| --- | --- | --- |
| O=CCCCC=O [Glutaraldehyde] | > 45.8 | > 45.8 |
| CC[C@@H](CO)NCCN[C@@H](CC)CO [Ethambutol dihydrochloride] | > 45.8 | > 45.8 |
| COc1ccc(C(=O)c2ccccc2)c(O)c1 [2-Hydroxy-4-methoxybenzophenone] | > 45.8 | > 45.8 |
| CC1=C(/C=C/C(C)=C/C=C/C(C)=C\C(=O)O)C(C)(C)CCC1 [Isotretinoin] | > 45.8 | > 45.8 |
| CNC(=O)c1cnn(-c2nc(N)c3ncn([C@@H]4O[C@H](CO)[C@@H](O)[C@H]4O)c3n2)c1 [Lexiscan] | > 45.8 | > 45.8 |
| CCCc1nc(C(C)(C)O)c(C(=O)OCc2oc(=O)oc2C)n1Cc1ccc(-c2ccccc2-c2nnn[nH]2)cc1 [Olmesartan medoxomil] | > 45.8 | > 45.8 |
| CCCCC/C=C/C/C=C/CCCCCCCC(=O)NC(C)c1ccccc1 (stereo not drawn) [Melinamide] | > 45.8 | > 45.8 |
| COc1ccc(O)cc1 [4-Methoxyphenol] | > 45.8 | > 45.8 |
| CC1=C(CC(=O)O)c2cc(F)ccc2/C1=C\c1ccc([S+](C)[O-])cc1 (stereo not drawn) [Sulindac] | > 45.8 | > 45.8 |
| CC(=O)Nc1ccc(S(=O)(=O)Nc2ccc([N+](=O)[O-])cc2)cc1 [Sulfanitran] | > 45.8 | > 45.8 |
| COCCCOc1cc(C[C@@H](C[C@H](N)[C@@H](O)C[C@H](C(=O)NCC(C)(C)C(N)=O)C(C)C)C(C)C)ccc1OC [Aliskiren hemifumarate] | > 45.8 | > 45.8 |
| CN1C(CSCC(F)(F)F)Nc2cc(Cl)c(S(N)(=O)=O)cc2S1(=O)=O (stereo not drawn) [Polythiazide] | > 45.8 | > 45.8 |
| O=C(CCC1CCN(Cc2ccccc2)CC1)c1ccc2c(c1)NCCCC2 [Zanapezil fumerate] | > 45.8 | > 45.8 |
| CCOC(=O)[C@H](CCc1ccccc1)N[C@H]1CS[C@H](c2cccs2)CN(CC(=O)O)C1=O [Temocapril hydrochloride] | > 45.8 | > 45.8 |
| CN(C)[C@@H]1C(O)=C(C(=O)NCN2CCCC2)C(=O)[C@@]2(O)C(O)=C3C(=O)c4c(O)cccc4[C@@](C)(O)[C@H]3C[C@@H]12 [Rolitetracycline] | > 45.8 | > 45.8 |
| Cc1nc(=O)c2cc(CN(C)c3ccc(C(=O)N[C@@H](CCC(=O)O)C(=O)O)s3)ccc2[nH]1 [Raltitrexed] | > 45.8 | > 45.8 |
| CN1N=C2CCN(C(=O)[C@@H](COCc3ccccc3)NC(=O)C(C)(C)N)C[C@@]2(Cc2ccccc2)C1=O [Capromorelin] | > 45.8 | > 45.8 |
| CO/N=C(\C(=O)N[C@@H]1C(=O)N2C(C(=O)OC(C)OC(C)=O)=C(COC(N)=O)CS[C@H]12)c1ccco1 (stereo partly drawn) [Cefuroxime Axetil] | > 45.8 | > 45.8 |
| C[N+](C)(CCOc1ccccc1)Cc1cccs1 [Dimethyl(2-phenoxyethyl)-2-thenylammonium iodide] | > 45.8 | > 45.8 |
